We go through six compounds from patent publication EP0224596A1, “Use of dibenzocyclooctadiene lignans extracted from Schisandrae Fructus for the manufacture of a medicament for the treatment of hepatic failure” (priority 1985, dated 1986).

Series [1] can be described thus: Acute toxicity LD50, p.o. To be noted: mouse, in vivo, po; p.o. in ddY mice. The text has this: And estimated clinical daily doses of the present therapeutic drugs for patients with hepatic failure are also given in Table 2.
Series [2] concerns mice with acute hepatic failure. The series can be described thus: Effect on survival ratio of mice with acute hepatic failure (heat-killed P. acnes + LPS). The class given is in vivo, male balb/c strain mice. To be noted: survival twenty-four hours after injection of LPS, control 7.5. As to the method: Seven groups of male balb/c strain mice (six weeks of age) were used. Each group included 40 mice. Acute hepatic failure was induced by the injection of 1 µg/mouse of LPS (lipopolysaccharide, Difco Laboratories) to mice that had been injected with 1 mg/mouse of heat-killed P. acnes (Propionibacterium acnes, First Department of Biochemistry in Osaka City Univ. Medical School) seven days before. The above obtained compounds (deoxyschizandrin, gomisin N, schizandrin, gomisin A, q-schizandrin and wuweizisu C) which had been suspended in 0.5% CMC (carboxymethyl cellulose, Wako Junyaku Kogyo, Co. Ltd.), was given p.o. to each group eight hours after the injection of LPS. Only vehicle (CMC) was given p.o. to one remaining group as a control group.
Survival ratio of mice was periodically examined twenty-four hours after induction of acute hepatic failure. Each dose of the above compounds and corresponding survival ratio twenty-four hours after the injection of LPS are shown in Table 1.

Series [3] concerns rats with acute hepatic failure. The series can be described thus: Survival ratio and serum GOT in acute hepatic failure induced by P. acnes + LPS. The class given is in vivo, male Wistar rats. To be noted: for survival ratio: LPS on day seven, control 8.8%. On the procedure:
Three groups of male Wistar rats were used. Each group included 45 rats. Each rat in all groups was injected with 10 mg/rat of P. acnes. Four days after, gomisin A (100mg/kg, […]) obtained in Production Example 3 were suspended in 2% Tween 80/saline and administered i.p. to respectively two of three groups. Only vehicle (2% Tween 80/saline) was administered i.p. to one remaining group as a control group. All rats were injected with 50µg/rat of LPS, seven days after the injection of P. acnes. Twenty-four hours after the injection of LPS, blood samples were collected from surviving rats by heart puncture, and serum GOT activities were measured. GOT is one of amino acid transferases contained in liver cells. High serum GOT activities reflect large number of destroyed liver cells.

[4] abbreviates: dose 50 mg/kg p.o. in 0.5% CMC eight hours after LPS.
The mark [5] stands for this setting: dose 20 mg/kg p.o. in 0.5% CMC eight hours after LPS.

As for `COc1cc2c(c(OC)c1OC)-c1c(cc(OC)c(OC)c1OC)C[C@H](C)[C@H](C)C2` [Deoxyschizandrin, deoxyschizandrin], the 50% lethal dose (LD50) in series [1] turned out to be 2000 mg/kg. Also, the “Survival Ratio (%)” value in series [2] (setting [4]) was 55%.

`COc1cc2c(c(OC)c1OC)-c1c(cc3c(c1OC)OCO3)CC(C)C(C)(O)C2` (centres unmarked) [Gomisin A, gomisin A] returned a 50% lethal dose (LD50) in series [1] of 777 mg/kg. In addition, the “Survival Ratio (%)” value in series [2] (dose 10 mg/kg p.o. in 0.5% CMC eight hours after LPS) came to 80%. Besides, the survival ratio is recorded as 83.3% in series [3] (50mg/kg i.p. in 2% Tween 80/saline four days after P. acnes) and 100% in series [3] (100mg/kg i.p. in 2% Tween 80/saline four days after P. acnes). Also, the “average serum GOT activities” value in series [3] (100mg/kg i.p., surviving rats, twenty-four hours after injection of LPS, control 7000 IU) stood at 140 IU.

Regarding `COc1cc2c(c(OC)c1OC)-c1c(cc3c(c1OC)OCO3)CC(C)C(C)C2` (centres unmarked) [Gomisin N, gomisin N], in series [1], the median lethal dose (LD50) came out at 2000 mg/kg. Moreover, in series [2] (setting [5]), the “Survival Ratio (%)” value is listed as 80%.

Consider `COc1cc2c(c(OC)c1OC)-c1c(cc(OC)c(OC)c1OC)C[C@](C)(O)[C@@H](C)C2` [Schizandrin, schizandrin], for which, in series [1], the 50% lethal dose (LD50) was 1450 mg/kg. Also, the “Survival Ratio (%)” value in series [2] (setting [4]) amounted to 50%.

Compound `COc1c2c(cc3c1-c1c(cc4c(c1OC)OCO4)CC(C)C(C)C3)OCO2` (centres unmarked) [Wuweizisu C] yielded a 50% lethal dose (LD50) in series [1] of 2000 mg/kg. Further, in series [2] (setting [5]), the “Survival Ratio (%)” value was found to be 70%.

On to `COc1cc2c(c(OC)c1OC)-c1c(cc3c(c1OC)OCO3)CC(C)C(C)C2` (centres unmarked) [γ-Schizandrin, γ-schizandrin], for which the “Survival Ratio (%)” value in series [2] (setting [4]) came out at 60%.
